From ChEMBL document CHEMBL3102837, “Synthesis of novel indenoquinoxaline derivatives as potent α-glucosidase inhibitors” (Bioorg Med Chem, 2014)
Active and inactive are the calls of the source. The calls are words filed in the database; no cut-off is given here.

Experiments:
[1] = molecular target: T1, Tyrosinase (Homo sapiens) (UniProt P14679); experiment: Inhibition of tyrosinase (unknown origin)
T1 sequence (whole entry): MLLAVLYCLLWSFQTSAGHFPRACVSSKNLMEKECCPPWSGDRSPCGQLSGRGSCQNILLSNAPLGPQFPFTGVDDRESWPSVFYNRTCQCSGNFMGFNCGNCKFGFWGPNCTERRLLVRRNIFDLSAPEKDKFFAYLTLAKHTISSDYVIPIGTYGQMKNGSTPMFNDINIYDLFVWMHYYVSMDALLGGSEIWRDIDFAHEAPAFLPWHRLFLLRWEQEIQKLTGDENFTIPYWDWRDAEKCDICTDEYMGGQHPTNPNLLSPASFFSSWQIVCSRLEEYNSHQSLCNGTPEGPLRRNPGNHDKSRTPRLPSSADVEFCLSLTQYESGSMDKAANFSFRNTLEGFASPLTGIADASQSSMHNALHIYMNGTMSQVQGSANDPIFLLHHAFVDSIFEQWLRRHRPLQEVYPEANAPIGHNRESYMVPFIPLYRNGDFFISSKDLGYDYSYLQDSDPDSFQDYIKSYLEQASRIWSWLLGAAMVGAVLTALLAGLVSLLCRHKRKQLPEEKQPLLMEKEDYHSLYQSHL

[2] = species: Homo sapiens; experiment: Inhibition of alpha-chymotrypsin (unknown origin)
[3] = molecular target: Alpha-glucosidase MAL12 (Saccharomyces cerevisiae S288c, UniProt P53341); experiment: Inhibition of Saccharomyces cerevisiae alpha-glucosidase using p-nitrophenyl-alpha-D-glucopyranoside as substrate preincubated for 10 mins measured after 30 mins
Alpha-glucosidase MAL12, sequence (P53341 whole entry): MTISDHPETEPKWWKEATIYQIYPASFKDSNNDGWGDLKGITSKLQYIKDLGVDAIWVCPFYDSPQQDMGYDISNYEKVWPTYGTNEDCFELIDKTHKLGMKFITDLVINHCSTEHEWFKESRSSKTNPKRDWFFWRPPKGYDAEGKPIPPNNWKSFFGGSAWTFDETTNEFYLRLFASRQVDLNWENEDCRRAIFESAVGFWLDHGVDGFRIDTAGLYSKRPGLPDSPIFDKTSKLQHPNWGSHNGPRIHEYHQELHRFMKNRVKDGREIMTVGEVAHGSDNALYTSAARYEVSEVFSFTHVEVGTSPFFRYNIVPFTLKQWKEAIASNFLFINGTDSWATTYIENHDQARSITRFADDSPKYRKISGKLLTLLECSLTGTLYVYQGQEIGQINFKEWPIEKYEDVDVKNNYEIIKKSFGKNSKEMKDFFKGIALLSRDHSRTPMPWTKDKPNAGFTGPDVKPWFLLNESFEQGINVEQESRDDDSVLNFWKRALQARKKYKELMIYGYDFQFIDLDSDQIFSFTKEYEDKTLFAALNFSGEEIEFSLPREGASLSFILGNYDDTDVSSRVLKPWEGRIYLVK

Row | Structure (SMILES) | inhibition [1] | inhibition [2] | IC50 ([3]; read-out: IC50) [µM] | IC50 [3]
1 | O=C(N/N=C1/c2ccccc2-c2nc3ccccc3nc21)c1cccc(I)c1 | inactive | Active | 77.5 | –
2 | O=C(N/N=C1/c2ccccc2-c2nc3ccccc3nc21)c1ccccc1 | inactive | Active | – | Not Active
3 | O=C(N/N=C1/c2ccccc2-c2nc3ccccc3nc21)c1ccc([N+](=O)[O-])cc1 | inactive | Active | 29.5 | –
4 | O=C(N/N=C1/c2ccccc2-c2nc3ccccc3nc21)c1cccc(Br)c1 | inactive | Active | 113 | –
5 | O=C(N/N=C1/c2ccccc2-c2nc3ccccc3nc21)c1ccccc1[N+](=O)[O-] | inactive | Active | 23.5 | –
6 | O=C(N/N=C1/c2ccccc2-c2nc3ccccc3nc21)c1ccccc1Cl | inactive | Active | 25.9 | –
7 | O=C(N/N=C1/c2ccccc2-c2nc3ccccc3nc21)c1cccc(F)c1 | inactive | Active | 90.9 | –
8 | Cc1ccc(C(=O)N/N=C2/c3ccccc3-c3nc4ccccc4nc32)cc1 | inactive | Active | > 500 | –
9 | O=C1c2ccccc2-c2nc3ccccc3nc21 | – | – | 62.5 | –
10 | c1ccc2c(c1)/C(=N/N=C1\c3ccccc3-c3nc4ccccc4nc31)c1nc3ccccc3nc1-2 | inactive | Active | 18.2 | –
11 | O=C(N/N=C1/c2ccccc2-c2nc3ccccc3nc21)c1ccc(Br)cc1 | inactive | Active | 22.7 | –
12 | O=C(N/N=C1/c2ccccc2-c2nc3ccccc3nc21)c1ccccc1Br | inactive | Active | 23.1 | –
13 | O=C(N/N=C1/c2ccccc2-c2nc3ccccc3nc21)c1ccc(O)cc1 | inactive | Active | 102 | –
14 | O=C(N/N=C1/c2ccccc2-c2nc3ccccc3nc21)c1ccc(F)cc1 | inactive | Active | 53.4 | –
15 | Nc1ccccc1C(=O)N/N=C1/c2ccccc2-c2nc3ccccc3nc21 | inactive | Active | 62.3 | –
16 | COc1ccc(C(=O)N/N=C2/c3ccccc3-c3nc4ccccc4nc32)cc1O | inactive | Active | – | Not Active
17 | O=C(N/N=C1/c2ccccc2-c2nc3ccccc3nc21)c1ccc(Cl)cc1 | inactive | Active | 99.9 | –
18 | O=C(N/N=C1/c2ccccc2-c2nc3ccccc3nc21)c1cccc(Cl)c1 | inactive | Active | 105 | –
19 | O=C(N/N=C1/c2ccccc2-c2nc3ccccc3nc21)c1ccc(I)cc1 | inactive | Active | 37.7 | –
